Laboratory results taken from US12059400B2, “Medical compound” (VERA SALUS RICERCA S.R.L., priority 2017, dated 2024).

Assays:
[1] = test system: human prostate carcinoma cells (PC3); assay: Cell proliferation, crystal violet method; type: cell-based; details: 80 μM; FIG. 5a, 5b
Experimental: (§1) The compound according to the invention, and in particular the synthetic quercetin derivatives described and illustrated herein were investigated in vitro by using human tumour cells and assessing their impact on the tumour proliferative capacity, with regard to the tumours described above. In particular, the following human tumour cell lines were assessed experimentally: 1) HCT116, colon adenocarcinoma cells; 2) H1299, lung adenocarcinoma cells; 3) A375, melanoma cells, and 4) A431, squamous skin cell carcinoma; 5) 786-0, renal carcinoma cells; 6) PC3, prostate carcinoma cells; 7) BT549, mammary carcinoma cells; 8) CAL27, tongue carcinoma cells (belonging to the head-and-neck carcinomas); 9) HepG2, hepatocellular carcinoma cells; 10) PANC-1, pancreas carcinoma cells; 11) T24, bladder carcinoma cells; 12) OVCAR-3, ovarian carcinoma cells. In addition, a normal human cell line, WS1 (skin fibroblasts) was also treated with the novel synthetic compounds. Cell proliferation was quantified by the crystal violet method with a spectrophotometer. In short, after acquiring serial images (0, 24 and 48 hrs) with the EVOS XL Cell Imaging System microscope (Thermo Fisher Scientific), the cells imaged at 48 hrs were fixed with paraformaldehyde (4%) and stained with Crystal Violet (1%). Then, the specific absorbance (λ=590 nm) at 48 hrs was measured with a spectrophotometer (Infinite®200 PRO, Tecan). Data analysis was carried out by using ad-hoc Excel files for graphical representation and statistical processing (t-test). Moreover, the results obtained with Crystal Violet were confirmed by using another cell proliferation assessment method based on the real time cellular analyzer XCELLigence RTCA DP (ACEA Biosciences, Inc.). This tool allows cell growth to be monitored from electrical impedance-derived quantitative values (the so-called Cell Index) measured by tiny electrodes located at the base of the culture wells. Proliferation is monitored for several days (5-7) by setting a Cell Index per minute measure on the instrument. The data are analysed by processing various parameters calculated by the dedicated software, such as the cell duplication time, the slope and the Max Cell Index. […] Cell proliferation was quantitated spectrophotometrically by the crystal violet method.

[2] = test system: human pancreatic carcinoma cells (PANC-1); assay: Cell proliferation, crystal violet method; type: cell-based; details: 80 μM; FIG. 9a, 9b
Experimental: as §1

[3] = test system: human renal carcinoma cells (786-0); assay: Cell proliferation, crystal violet method; type: cell-based; details: 80 μM; FIG. 4a, 4b
Experimental: as §1

[4] = test system: human bladder carcinoma cells (T24); assay: Cell proliferation, crystal violet method; type: cell-based; details: 80 μM; FIG. 10a, 10b
Experimental: as §1

[5] = test system: human skin fibroblasts (WS1); assay: Cell proliferation of normal cells, crystal violet method; type: cell-based; details: at the indicated concentrations (not given); FIG. 17
Experimental: The compound according to the invention, and in particular the synthetic quercetin derivatives described and illustrated herein were investigated in vitro by using human tumour cells and assessing their impact on the tumour proliferative capacity, with regard to the tumours described above. In particular, the following human tumour cell lines were assessed experimentally: 1) HCT116, colon adenocarcinoma cells; 2) H1299, lung adenocarcinoma cells; 3) A375, melanoma cells, and 4) A431, squamous skin cell carcinoma; 5) 786-0, renal carcinoma cells; 6) PC3, prostate carcinoma cells; 7) BT549, mammary carcinoma cells; 8) CAL27, tongue carcinoma cells (belonging to the head-and-neck carcinomas); 9) HepG2, hepatocellular carcinoma cells; 10) PANC-1, pancreas carcinoma cells; 11) T24, bladder carcinoma cells; 12) OVCAR-3, ovarian carcinoma cells. In addition, a normal human cell line, WS1 (skin fibroblasts) was also treated with the novel synthetic compounds. Cell proliferation was quantified by the crystal violet method with a spectrophotometer. In short, after acquiring serial images (0, 24 and 48 hrs) with the EVOS XL Cell Imaging System microscope (Thermo Fisher Scientific), the cells imaged at 48 hrs were fixed with paraformaldehyde (4%) and stained with Crystal Violet (1%). Then, the specific absorbance (λ=590 nm) at 48 hrs was measured with a spectrophotometer (Infinite®200 PRO, Tecan). Data analysis was carried out by using ad-hoc Excel files for graphical representation and statistical processing (t-test). […] This tool allows cell growth to be monitored from electrical impedance-derived quantitative values (the so-called Cell Index) measured by tiny electrodes located at the base of the culture wells. Proliferation is monitored for several days (5-7) by setting a Cell Index per minute measure on the instrument. The data are analysed by processing various parameters calculated by the dedicated software, such as the cell duplication time, the slope and the Max Cell Index.

[6] = test system: human ovarian carcinoma cells (OVCAR-3); assay: Cell proliferation, crystal violet method; type: cell-based; details: 60 μM; FIG. 11a, 11b
Experimental: (§2) The compound according to the invention, and in particular the synthetic quercetin derivatives described and illustrated herein were investigated in vitro by using human tumour cells and assessing their impact on the tumour proliferative capacity, with regard to the tumours described above. In particular, the following human tumour cell lines were assessed experimentally: 1) HCT116, colon adenocarcinoma cells; 2) H1299, lung adenocarcinoma cells; 3) A375, melanoma cells, and 4) A431, squamous skin cell carcinoma; 5) 786-0, renal carcinoma cells; 6) PC3, prostate carcinoma cells; 7) BT549, mammary carcinoma cells; 8) CAL27, tongue carcinoma cells (belonging to the head-and-neck carcinomas); 9) HepG2, hepatocellular carcinoma cells; 10) PANC-1, pancreas carcinoma cells; 11) T24, bladder carcinoma cells; 12) OVCAR-3, ovarian carcinoma cells. In addition, a normal human cell line, WS1 (skin fibroblasts) was also treated with the novel synthetic compounds.
(§3) Cell proliferation was quantified by the crystal violet method with a spectrophotometer. In short, after acquiring serial images (0, 24 and 48 hrs) with the EVOS XL Cell Imaging System microscope (Thermo Fisher Scientific), the cells imaged at 48 hrs were fixed with paraformaldehyde (4%) and stained with Crystal Violet (1%). Then, the specific absorbance (λ=590 nm) at 48 hrs was measured with a spectrophotometer (Infinite®200 PRO, Tecan). Data analysis was carried out by using ad-hoc Excel files for graphical representation and statistical processing (t-test). Moreover, the results obtained with Crystal Violet were confirmed by using another cell proliferation assessment method based on the real time cellular analyzer XCELLigence RTCA DP (ACEA Biosciences, Inc.). This tool allows cell growth to be monitored from electrical impedance-derived quantitative values (the so-called Cell Index) measured by tiny electrodes located at the base of the culture wells. Proliferation is monitored for several days (5-7) by setting a Cell Index per minute measure on the instrument. The data are analysed by processing various parameters calculated by the dedicated software, such as the cell duplication time, the slope and the Max Cell Index.
(§4) Cell proliferation was quantitated spectrophotometrically by the crystal violet method.

[7] = test system: human colon carcinoma cells (HCT116); assay: Intracellular ROS levels, DCFH2-DA probe; type: cell-based; details: 2 hrs of treatment; at the respective anti-proliferative IC50s; DCF fluorescence in A.U.; FIG. 22 left
Experimental: Intracellular ROS levels were measured in tumour cells by using the probe 2,7-dichlorodihydrofluorescein diacetate (DCFH2-DA) and a fluorescence spectrophotometer. DCFH2-DA diffuses readily through the cell membrane into the cytosolic space of the cell where it is hydrolyzed by intracellular esterases into the non-permeable DCFH2 product. DCFH2 oxidation by intracellular ROS (mainly H2O2, HO·, ROO·, NO· and ONOO) results in the production of intracellular fluorescent DCF, whose concentration is directly proportional to the levels of ROS in the cell. […] All the experiments were repeated at least 3 times. Data analysis was carried out with GraphPad Prism 6 for graphical representation and statistical processing (1-way ANOVA test).

[8] = test system: human melanoma cells (A375); assay: Cell cycle progression, propidium iodide method, cytofluorimeter; type: cell-based; details: 24 hrs; at the respective anti-proliferative IC50s; FIG. 19
Experimental: Progression through the tumour cell cycle was assessed by the propidium iodide method and quantification of the cell DNA content with a cytofluorimeter. Briefly, after treatment (in duplicate) with the test compounds (24 hrs), the tumour cells were washed (with PBS), detached with trypsin-EDTA and pelleted by centrifugation (125 g for 6 min). The cells were then fixed in ethanol (70%) and stored in the freezer (−20° C.) for 1-3 days. After further washing (PBS) and treatment with RNAse (50 ug/ml), the cells were contacted (on ice in the dark; 30 min) with propidium iodide (50 μg/ml). FL2 and FL3 cytofluorimeter readings analysed approximately 50,000 cells (1 μl/second) per sample. Statistical analysis and graphical representation were performed by using t-tests and preset Excel property files.

SCC cells (A431) = assay: Cell proliferation, crystal violet method; type: cell-based, human; details: 90 μM; FIG. 2a, 2b
Experimental: as §1

[9] = test system: human melanoma cells (A375); assay: Cell proliferation, crystal violet method; type: cell-based
Experimental: as §2, §3, §4

[10] = test system: human colon carcinoma cells (HCT116); assay: Cell proliferation, crystal violet method; type: cell-based
Experimental: as §2, §3, §4

Row | IC50 ([9]; Homo sapiens, A-375, crystal violet, spectrophotometer, read-out: IC50 anti-proliferative effect, Melanoma (A375)) [µM] | IC50 ([10]; Homo sapiens, HCT-116, crystal violet, spectrophotometer, read-out: IC50 anti-proliferative effect, CRC (HCT116)) [µM] | Compound | PC3 cell growth vs vehicle control [1] | PANC-1 cell growth vs vehicle control [2] | 786-0 cell growth vs vehicle control [3] | T24 cell growth vs vehicle control [4] | proliferation of normal human skin fibroblasts (WS1) vs vehicle control [5] | OVCAR-3 cell growth vs vehicle control [6] | intracellular ROS levels in HCT116 cells [7] | halt of A375 tumour cells in S and/or G2 of the cell cycle [8] | A431 cell growth vs vehicle control (SCC cells (A431)) | A375 cell growth vs vehicle control ([9]; 10 μM and 30 μM, FIG. 14) | HCT116 cell growth vs vehicle control ([10]; 10 μM and 30 μM, FIG. 15)
1 | – | – | O=c1c(O)c(-c2ccc(O)c(O)c2)oc2cc(O)cc(O)c12 [quercetin, Quercetin, reference compound] | modest anti-proliferative effects | has no effect | has no effect | has no effect | do not disrupt | has no effect | has no effect | significantly halt | has no effect | – | –
2 | 9.48 | 5.51 | O=C(NCCOCCOc1c(-c2ccc(O)c(O)c2)oc2cc(O)cc(O)c2c1=O)c1ccc(-c2ccc(C(=O)NCCOCCOc3c(-c4ccc(O)c(O)c4)oc4cc(O)cc(O)c4c3=O)cc2)cc1 [Compound 19b] | – | – | – | – | – | – | significantly raise | – | – | significantly inhibited | significantly inhibited
3 | – | – | O=c1cc(-c2ccc(O)cc2)oc2cc(O)cc(O)c12 [apigenin] | – | – | – | – | significantly inhibits | – | – | – | – | – | –
